Reference: ChEMBL document CHEMBL4673334, “In Vivo Biological Evaluation of a Synthetic Royleanone Derivative as a Promising Fast-Acting Trypanocidal Agent by Inducing Mitochondrial-Dependent Necrosis” (J Nat Prod, 2020)
The source made the active and inactive calls. The calls are words filed in the database; no cut-off is given here.

Experiments:
Vero = assay: Cytotoxicity against African green monkey Vero cells assessed as reduction in cell viability after 48 hrs by resazurin dye based assay; conditions: Chlorocebus sabaeus
Trypanosoma cruzi [1] = assay: Antitrypanosomal activity against Trypanosoma cruzi MHOM/Pe/2011/Arequipa(DTU V) epimastigote form assessed as parasite growth inhibition incubated for 48 hrs by resazurin dye based assay; assay type: functional, organism-based
Trypanosoma cruzi [2] = assay: Antitrypanosomal activity against Trypanosoma cruzi IRHOD/CO/2008/SN3 (DTU I) epimastigote form assessed as parasite growth inhibition incubated for 48 hrs by resazurin dye based assay; assay type: functional, organism-based
Trypanosoma cruzi [3] = assay: Antitrypanosomal activity against Trypanosoma cruzi TINF/CH/1956/Tulahuen (DTU VI) epimastigote form assessed as parasite growth inhibition incubated for 48 hrs by resazurin dye based assay; assay type: functional, organism-based
Trypanosoma cruzi [4] = assay: Antitrypanosomal activity against Trypanosoma cruzi MHOM/Pe/2011/Arequipa(DTU V) amastigote form infected in Vero cells assessed as parasite growth inhibition at 50 uM incubated for 72 hrs by Giemsa-staining based assay relative to control; assay type: functional
Trypanosoma cruzi [5] = assay: Antitrypanosomal activity against Trypanosoma cruzi MHOM/Pe/2011/Arequipa(DTU V) amastigote form infected in BALB/c mouse assessed as reactivation parasitaemia at 20 mg/kg, po administered for 5 days starting at 9 days post infection and measured up to 145 days post infection relative to control; assay type: functional; conditions: time 5 day
[6] = Toxicity in BALB/c mouse infected with Trypanosomal Trypanosoma cruzi MHOM/Pe/2011/Arequipa(DTU V) assessed as effect on ALP level at 20 mg/kg, po administered for 5 days starting at 9 days post infection and measured after 2 days post treatment; assay type: organism-based; conditions: in vivo, 120 h, time 5 day
Trypanosoma cruzi [7] = assay: Antitrypanosomal activity against Trypanosoma cruzi MHOM/Pe/2011/Arequipa(DTU V) amastigote form infected in BALB/c mouse assessed as reactivation parasitaemia at 20 mg/kg, po administered for 5 days starting at 100 days post infection and measured up to 145 days post infection relative to control; assay type: functional; conditions: time 5 day
Trypanosoma cruzi [8] = assay: Inhibition of mitochondrial membrane potential in Trypanosoma cruzi MHOM/Pe/2011/Arequipa(DTU V) epimastigote form at IC25 concentration after 72 hrs by Rho (FITC-A) staining based flow cytometric analysis; assay type: functional
[9] = Toxicity in BALB/c mouse infected with Trypanosomal Trypanosoma cruzi MHOM/Pe/2011/Arequipa(DTU V) assessed as effect on LDH level at 20 mg/kg, po administered for 5 days starting at 9 days post infection and measured after 2 days post treatment; assay type: organism-based; conditions: in vivo, 120 h, time 5 day
[10] = Toxicity in BALB/c mouse infected with Trypanosomal Trypanosoma cruzi MHOM/Pe/2011/Arequipa(DTU V) assessed as effect on […] level at 20 mg/kg, po administered for 5 days starting at 100 days post infection and measured after 2 days post treatment; assay type: organism-based; conditions: in vivo, 120 h, time 5 day
[11] = Toxicity in BALB/c mouse infected with Trypanosomal Trypanosoma cruzi MHOM/Pe/2011/Arequipa(DTU V) assessed as effect on CK-MB level at 20 mg/kg, po administered for 5 days starting at 9 days post infection and measured after 2 days post treatment; assay type: organism-based; conditions: in vivo, 120 h, time 5 day
[12] = Toxicity in BALB/c mouse infected with Trypanosomal Trypanosoma cruzi MHOM/Pe/2011/Arequipa(DTU V) assessed as reduction in weight at 20 mg/kg, po administered for 5 days starting at 100 days post infection and measured up to 145 days post infection; assay type: organism-based; conditions: in vivo, 120 h, time 5 day
[13] = Toxicity in BALB/c mouse infected with Trypanosomal Trypanosoma cruzi MHOM/Pe/2011/Arequipa(DTU V) assessed as effect on uric acid level at 20 mg/kg, po administered for 5 days starting at 9 days post infection and measured after 2 days post treatment; assay type: organism-based; conditions: in vivo, 120 h, time 5 day
[14] = Toxicity in BALB/c mouse infected with Trypanosomal Trypanosoma cruzi MHOM/Pe/2011/Arequipa(DTU V) assessed as effect on urea level at 20 mg/kg, po administered for 5 days starting at 100 days post infection and measured after 2 days post treatment; assay type: organism-based; conditions: in vivo, 120 h, time 5 day
[15] = Toxicity in BALB/c mouse infected with Trypanosomal Trypanosoma cruzi MHOM/Pe/2011/Arequipa(DTU V) assessed as effect on total bilirubin level at 20 mg/kg, po administered for 5 days starting at 100 days post infection and measured after 2 days post treatment; assay type: organism-based; conditions: in vivo, 120 h, time 5 day
Trypanosoma cruzi [16] = assay: (§1) Antitrypanosomal activity against Trypanosoma cruzi MHOM/Pe/2011/Arequipa(DTU V) amastigote form infected in BALB/c mouse assessed as parasite free organ tissue ratio at 20 mg/kg, po administered for 5 days starting at 9 days post infection and measured up to 145 days post infection by PCR analysis relative to control; assay type: functional; conditions: time 5 day
[17] = Toxicity in BALB/c mouse infected with Trypanosomal Trypanosoma cruzi MHOM/Pe/2011/Arequipa(DTU V) assessed as effect on ALT/GPT level at 20 mg/kg, po administered for 5 days starting at 9 days post infection and measured after 2 days post treatment; assay type: organism-based; conditions: in vivo, 120 h, time 5 day
[18] = Toxicity in BALB/c mouse infected with Trypanosomal Trypanosoma cruzi MHOM/Pe/2011/Arequipa(DTU V) assessed as reduction in survival at 20 mg/kg, po administered for 5 days starting at 100 days post infection and measured up to 145 days post infection; assay type: organism-based; conditions: in vivo, 120 h, time 5 day
[19] = Toxicity in BALB/c mouse infected with Trypanosomal Trypanosoma cruzi MHOM/Pe/2011/Arequipa(DTU V) assessed as effect on CK-MB level at 20 mg/kg, po administered for 5 days starting at 100 days post infection and measured after 2 days post treatment; assay type: organism-based; conditions: in vivo, 120 h, time 5 day
[20] = Toxicity in BALB/c mouse infected with Trypanosomal Trypanosoma cruzi MHOM/Pe/2011/Arequipa(DTU V) assessed as reduction in survival at 20 mg/kg, po administered for 5 days starting at 9 days post infection and measured up to 145 days post infection; assay type: organism-based; conditions: in vivo, 120 h, time 5 day
[21] = Toxicity in BALB/c mouse infected with Trypanosomal Trypanosoma cruzi MHOM/Pe/2011/Arequipa(DTU V) assessed as effect on total bilirubin level at 20 mg/kg, po administered for 5 days starting at 9 days post infection and measured after 2 days post treatment; assay type: organism-based; conditions: in vivo, 120 h, time 5 day
Trypanosoma cruzi [22] = assay: as §1, with “100” for “9”; assay type: functional; conditions: time 5 day
[23] = Toxicity in BALB/c mouse infected with Trypanosomal Trypanosoma cruzi MHOM/Pe/2011/Arequipa(DTU V) assessed as effect on AST/GOT level at 20 mg/kg, po administered for 5 days starting at 9 days post infection and measured after 2 days post treatment; assay type: organism-based; conditions: in vivo, 120 h, time 5 day
[24] = Toxicity in BALB/c mouse infected with Trypanosomal Trypanosoma cruzi MHOM/Pe/2011/Arequipa(DTU V) assessed as effect on uric acid level at 20 mg/kg, po administered for 5 days starting at 100 days post infection and measured after 2 days post treatment; assay type: organism-based; conditions: in vivo, 120 h, time 5 day
[25] = Toxicity in BALB/c mouse infected with Trypanosomal Trypanosoma cruzi MHOM/Pe/2011/Arequipa(DTU V) assessed as effect on ALP level at 20 mg/kg, po administered for 5 days starting at 100 days post infection and measured after 2 days post treatment; assay type: organism-based; conditions: in vivo, 120 h, time 5 day
Trypanosoma cruzi [26] = assay: Antitrypanosomal activity against Trypanosoma cruzi MHOM/Pe/2011/Arequipa(DTU V) amastigote form infected in BALB/c mouse assessed as reduction in parasitaemia at 20 mg/kg, po for 5 days and measured after 55 days post infection; assay type: functional, organism-based; conditions: time 5.0 day
[27] = Toxicity in BALB/c mouse infected with Trypanosomal Trypanosoma cruzi MHOM/Pe/2011/Arequipa(DTU V) assessed as effect on urea level at 20 mg/kg, po administered for 5 days starting at 9 days post infection and measured after 2 days post treatment; assay type: organism-based; conditions: in vivo, 120 h, time 5 day
Trypanosoma cruzi [28] = assay: Inhibition of nucleic acid level in Trypanosoma cruzi MHOM/Pe/2011/Arequipa(DTU V) epimastigote form at IC25 concentration after 72 hrs by Rho (FITC-A) staining based flow cytometric analysis; assay type: functional
[29] = Toxicity in BALB/c mouse infected with Trypanosomal Trypanosoma cruzi MHOM/Pe/2011/Arequipa(DTU V) assessed as effect on ALT/GPT level at 20 mg/kg, po administered for 5 days starting at 100 days post infection and measured after 2 days post treatment; assay type: organism-based; conditions: in vivo, 120 h, time 5 day
[30] = Toxicity in BALB/c mouse infected with Trypanosomal Trypanosoma cruzi MHOM/Pe/2011/Arequipa(DTU V) assessed as reduction in weight at 20 mg/kg, po administered for 5 days starting at 9 days post infection and measured up to 145 days post infection; assay type: organism-based; conditions: in vivo, 120 h, time 5 day
[31] = Toxicity in BALB/c mouse infected with Trypanosomal Trypanosoma cruzi MHOM/Pe/2011/Arequipa(DTU V) assessed as effect on LDH level at 20 mg/kg, po administered for 5 days starting at 100 days post infection and measured after 2 days post treatment; assay type: organism-based; conditions: in vivo, 120 h, time 5 day

Question: Which IC50 (Vero) does the source give for `CC(C)c1cc2c(cc1O)[C@@]1(C)CCCC(C)(C)[C@@]1(O)OC2=O` here?
Answer: 480 µM

Question: And the IC50 (Trypanosoma cruzi [1])?
Answer: 40.5 µM

Question: And the IC50 (Trypanosoma cruzi [2])?
Answer: 91.2 µM

Question: And the IC50 (Trypanosoma cruzi [3])?
Answer: 72.8 µM

Question: With `O=C(Cn1ccnc1[N+](=O)[O-])NCc1ccccc1` [BENZNIDAZOLE] as the compound, how does the inhibition at 50 µM (Trypanosoma cruzi [4]) read?
Answer: 100%

Question: What about the Activity (Trypanosoma cruzi [5]) of the same compound?
Answer: 81.5%

Question: And the Activity [6]?
Answer: Non-Toxic

Question: And the Activity (Trypanosoma cruzi [7])?
Answer: 68.3%

Question: What about the inhibition (Trypanosoma cruzi [8]) of the same compound?
Answer: 35.4%

Question: What about the Activity [9] of the same compound?
Answer: Non-Toxic

Question: And the Activity [10]?
Answer: Non-Toxic

Question: What about the Activity [11] of the same compound?
Answer: Non-Toxic

Question: And the Activity [12]?
Answer: Non-Toxic

Question: And the Activity [13]?
Answer: Non-Toxic

Question: What about the Activity [14] of the same compound?
Answer: Non-Toxic

Question: What about the Activity [15] of the same compound?
Answer: Non-Toxic

Question: And the Activity (Trypanosoma cruzi [16])?
Answer: 28.5%

Question: What about the Activity [17] of the same compound?
Answer: Non-Toxic

Question: And the Activity [18]?
Answer: Non-Toxic

Question: And the Activity [19]?
Answer: Non-Toxic

Question: What about the Activity [20] of the same compound?
Answer: Non-Toxic

Question: And the Activity [21]?
Answer: Non-Toxic

Question: And the Activity (Trypanosoma cruzi [22])?
Answer: 42.9%

Question: And the Activity [23]?
Answer: Non-Toxic

Question: What about the Activity [24] of the same compound?
Answer: Non-Toxic

Question: And the Activity [25]?
Answer: Non-Toxic

Question: What about the IC50 (Vero) of the same compound?
Answer: 80.4 µM

Question: What about the Activity (Trypanosoma cruzi [26]) of the same compound?
Answer: Active

Question: What about the Activity [27] of the same compound?
Answer: Non-Toxic

Question: What about the inhibition (Trypanosoma cruzi [28]) of the same compound?
Answer: 22.4%

Question: What about the Activity [29] of the same compound?
Answer: Non-Toxic

Question: And the Activity [30]?
Answer: Non-Toxic

Question: And the Activity [31]?
Answer: Non-Toxic

Question: For `CC(C)C1=CC(=O)C2=C(C=C[C@H]3C(C)(C)CCC[C@]23C)C1=O`, which IC50 (Vero) is on record?
Answer: 26.1 µM

Question: And the IC50 (Trypanosoma cruzi [1])?
Answer: 19 µM

Question: And the IC50 (Trypanosoma cruzi [2])?
Answer: 13.5 µM

Question: What about the IC50 (Trypanosoma cruzi [3]) of the same compound?
Answer: 19.2 µM

Question: Which IC50 (Vero) does the source give for `CC(C)c1cc2c(cc1O)[C@@]1(C)CCC[C@@]3(C)CO[C@@H](C2=O)[C@@H]31` here?
Answer: 952 µM

Question: What about the IC50 (Trypanosoma cruzi [1]) of the same compound?
Answer: 51 µM

Question: And the IC50 (Trypanosoma cruzi [2])?
Answer: 60.8 µM

Question: What about the IC50 (Trypanosoma cruzi [3]) of the same compound?
Answer: 62.8 µM

Question: Which IC50 (Vero) does the source give for `COC(=O)[C@]1(C)CCC[C@]2(C)c3ccc(C(C)C)c(O)c3CC[C@@H]12` here?
Answer: 102 µM

Question: And the IC50 (Trypanosoma cruzi [1])?
Answer: 75 µM

Question: And the IC50 (Trypanosoma cruzi [2])?
Answer: 103 µM

Question: What about the IC50 (Trypanosoma cruzi [3]) of the same compound?
Answer: 71.2 µM

Question: What does the source list for `CC(C)c1cc2c(cc1O)[C@@]1(C)CCC[C@@]3(C)CO[C@@H]([C@@H]2O)[C@@H]31`?
Answer: IC50 (Vero): 763 µM; IC50 (Trypanosoma cruzi [1]): 31.1 µM; IC50 (Trypanosoma cruzi [2]): 36.7 µM; IC50 (Trypanosoma cruzi [3]): 34.6 µM

Question: For `CC(C)C1=CC2=C[C@@H]3OC(=O)[C@]4(C)CCC=C(C2=C(O)C1=O)[C@]34C`, which IC50 (Vero) is on record?
Answer: 222 µM

Question: What about the IC50 (Trypanosoma cruzi [1]) of the same compound?
Answer: 75.9 µM

Question: What about the IC50 (Trypanosoma cruzi [2]) of the same compound?
Answer: 110 µM

Question: And the IC50 (Trypanosoma cruzi [3])?
Answer: 95.3 µM

Question: For `CC(C)c1cc2c(cc1O)[C@@]1(C)CCC[C@@](C)(C=O)[C@@H]1CC2` [18-OXOFERRUGINOL], which IC50 (Vero) is on record?
Answer: 106 µM

Question: What about the IC50 (Trypanosoma cruzi [1]) of the same compound?
Answer: 59.5 µM

Question: And the IC50 (Trypanosoma cruzi [2])?
Answer: 63 µM

Question: What about the IC50 (Trypanosoma cruzi [3]) of the same compound?
Answer: 48.7 µM
